Measurements reported in article PMC10952255, “Solid‐Phase Synthesis and Biological Evaluation of Peptides ADP‐Ribosylated at Histidine” (Angewandte Chemie (Weinheim an Der Bergstrasse, Germany), 2023).
Starred links: 1 amine or outer side, 2 acyl side, 3 side chain; linkers in the order of their positions; H or OH if unused. Non-standard residues stand in square brackets, D forms with d. Residues, ends and D or L forms follow the SMILES beside them. X1 = Nc1ncnc2c1ncn2[C@@H]1O[C@H](COP(=O)(O)OP(=O)(O)OC[C@H]2O[C@H](n3cncc3C[C@H](N[*:1])C(=O)[*:2])[C@H](O)[C@@H]2O)[C@@H](O)[C@H]1O

Tests used:
[1] = quoted without reference; cited from earlier work
[2] = Chemical stability assay (LC-MS based) under acidic, basic and nucleophilic conditions; assay type: physicochemical
Excerpt: Having prepared ADPr‐His peptides 26–28, we tested their stability under basic and acidic conditions in an LC–MS‐based assay to evaluate their sensitivity for future synthetic and biochemical studies. A selected set of chemically diverse conditions (aqueous acid, aqueous base and a neutral nucleophile) was probed because these are commonly applied in proteomic studies to identify ADP‐ribosylation sites[22] in proteins or during sample preparation.[14, 28] Aqueous solutions of the ADPr peptides with a final concentration of 0.1 M TFA, 0.1 M NaOH or 0.5 M NH2OH were prepared and shaken for 24 h at room temperature. […] In contrast, the NaOH treatment led to some conversion of the N(τ)‐ribosylated histidines 26 and 27 into products with an identical mass (approximately 7 and 11 %, respectively), indicating a slow epimerization of the modified histidine residue in N(τ)‐ribosyl peptides. […]
Figure 5 A) Chemical stability of peptide 28 under basic conditions (NaOH, 0.1 M). […] Peptide degradation was quantified by analyzing the UV‐trace (260 nm) using Xcalibur software. […] Enzymatic turnover of the various peptides was assessed by monitoring AMP release directly (NudT16) or converting released ADPr via NudT5 to AMP. AMP was measured using the AMP‐Glo assay (Promega). Samples are background corrected and normalized to NudT16 activity The data represents mean values±SD measured in triplicates. […]

| SMILES | pKa [1] | ADPr-peptide remaining in its original form ([2]; 0.1 M NaOH, after 24 h, LC-MS UV-trace 260 nm) | degradation of the pyrophosphate linkage ([2]; alkaline treatment (0.1 M NaOH), after a week, LC-MS) |
| --- | --- | --- | --- |
| c1c[nH]nn1 [1,2,3‐triazole] | 9.4 |  |  |
| CC(C)C[C@H](NC(=O)CNC(=O)[C@H](C)NC(=O)CNC(=O)[C@H](Cc1cncn1[C@H]1O[C@H](COP(=O)(O)OP(=O)(O)OC[C@H]2O[C@@H](n3cnc4c(N)ncnc43)[C@H](O)[C@@H]2O)[C@@H](O)[C@H]1O)NC(=O)[C@H](Cc1ccccc1)NC(=O)[C@@H](N)[C@@H](C)O)C(=O)N[C@H](C(=O)N[C@H](C(=O)N1CCC[C@H]1C(=O)N[C@H](C(=O)N[C@@H](CC(=O)O)C(=O)N[C@@H](CCCCN)C(=O)O)C(C)C)C(C)C)C(C)C [compound 28] (H-TF[X1]GAGLVVPVDK-OH) |  | approximately 60% | no degradation of the pyrophosphate linkage was observed |
